This note sets out measurements from patent US12115208B2, “Small-molecule adjuvants for antibiotics to address antibiotic resistance” (HIGH POINT UNIVERSITY, priority 2017, dated 2024).

pIC50: −log10 of the molar value. Values after ≈ are worked out from the molar mass of the structure shown.

Experiment [1] concerns S. aureus USA100 (MRSA). Description: microbe, parasite or virus in culture. Type of experiment: cell-based, Staphylococcus aureus. The conditions noted are these: compound alone, CAMHB, 18 h.
Experiment [2] relates to S. aureus ATCC 43300 (MRSA). Description: Minimum inhibitory concentration, broth microdilution. It counts as cell-based, Staphylococcus aureus. Conditions: compound alone; S. aureus ATCC 43300 (MRSA); CAMHB, 18 h; read-out: MIC. Here is the method: (§1) The compounds were then analyzed for antibiotic repotentiation activity. […] The tested strains included USA300, which is a common and particularly virulent strain of community-acquired MRSA.
In general terms: Dilution methods test growth across graded concentrations, often in twofold steps.

The test system of experiment [3] is S. aureus USA300 (MRSA). The experiment is described as above. It counts as cell-based, Staphylococcus aureus. The conditions noted are these: compound alone; S. aureus USA300 (MRSA); CAMHB, 18 h; read-out: MIC. How it is done: as §1
The test system of experiment [4] is S. aureus USA100 (MRSA). In words: Antibiotic repotentiation (antibiotic MIC with/without compound). Type of experiment: cell-based, Staphylococcus aureus. How it is done:
(§2) The overnight culture was diluted into fresh CAMHB to a concentration of 5×10^5 CFU/ml. […] On the same plate, a standard microdilution MIC with the tested antibiotics and no added compound was also performed to compare the antibiotic MIC in the presence and absence of compound. […] Fold reductions were calculated by dividing the MIC of the antibiotic without compound by the MIC of the antibiotic in the presence of compound.

The test system of the next experiment is S. aureus 43300 (MRSA). The experiment is described as above. Type of experiment: cell-based, Staphylococcus aureus. How it is done:
as §2, §1

Experiment [5] has as its system S. aureus USA300 (MRSA). The experiment is described as above. The conditions noted are these: for Oxacillin MIC / Fold Reduction: +50 μM compound, S. aureus USA300 (MRSA); for Fold Reduction: oxacillin MIC; for MIC of antibiotic: MRSA USA300. Type of experiment: cell-based, Staphylococcus aureus. How it is done:
as §2, §1

Experiment [6] concerns S. aureus NR-49120 (VRSA). The experiment is described as above. It counts as cell-based, Staphylococcus aureus. The conditions noted are these: VRSA NR-49120; for Fold Reduction: antibiotic MIC. Here is the method: as §2
Another experiment relates to MRSA 43300 biofilm. Description: Biofilm inhibition, crystal violet assay. It counts as cell-based, Staphylococcus aureus. The conditions noted are these: 30 h. Here is the method: (§3) A standard static crystal violet assay was used to quantify biofilm inhibition.^45 Cultures of S. aureus or S. epidermidis were grown overnight in TSBG (tryptic soy broth with 5% glucose) at 37° C. with shaking. These cultures were used to inoculate fresh TSBG to a calculated optical density of 0.01 at 600 nm (OD600). […] Untreated aliquots were used as a positive control and water served as a negative control. 100 μl of these suspensions were added to the wells of a 96-well polyvinylchloride microtiter plate. […] After incubation, media was discarded and the plates were washed with water to remove non-adherent cells. Adherent biofilms were stained with 110 μl of crystal violet (0.1% in water) and incubated at room temperature for thirty minutes. The crystal violet staining solution was discarded and plates were washed with water to remove excess stain. The resulting stained biofilms were solubilized with 200 μL of 95% ethanol for 10 minutes. 125 μl of the ethanol solutions were transferred to a clear polystyrene microtiter plate for evaluation. Absorbance at 540 nm was recorded using a BioTek Synergy H1 microplate reader. The absorbance of the negative control lanes was subtracted from the experimental values to account for background staining. Percent inhibition was calculated by comparison of the absorbance values of control versus treated wells under identical conditions.
Antibiotic resistance and biofilm formation share similar regulatory mechanisms. […] Biofilm inhibition was first assessed in S. aureus 43300, a methicillin-resistant strain (see Table 18). As described in Materials and Methods, a standard crystal violet assay was used to assess biofilm inhibition by the tested compounds. The IC50 is described as the compound concentration required to inhibit 50% of biofilm formation. The standard deviation is calculated from at least 3 independent experiments.

Experiment [7] relates to S. epidermidis ATCC 49461 biofilm. In words: Biofilm inhibition, crystal violet assay. Type of experiment: cell-based, Staphylococcus epidermidis. The conditions noted are these: 30 h, read-out: Inhibition of biofilm formation IC50. How it is done: as §3
The mark [8] stands for this setting: +50 μM compound, S. aureus USA100 (MRSA).
The mark [9] stands for this setting: oxacillin MIC, +50 μM compound, S. aureus USA100 (MRSA).
Where [10] appears, read: +50 μM compound, S. aureus 43300 (MRSA).
The mark [11] stands for this setting: oxacillin MIC, +50 μM compound, S. aureus 43300 (MRSA).

For `c1ccc2c(c1)[nH]c1ccccc12` [IV-1], the MIC (in the experiment on S. aureus USA100 (MRSA) [1]; in [2]; with S. aureus USA300 (MRSA) [3]) was above 200 µM throughout. The “Oxacillin MIC” value in the experiment with S. aureus USA100 (MRSA) [4] (setting [8]) was 512 µg/mL; in the experiment on S. aureus 43300 (MRSA) (setting [10]), 32 µg/mL; in the experiment on S. aureus USA300 (MRSA) [5] it was 64 µg/mL. Also, the “Fold Reduction” value in the experiment with S. aureus USA100 (MRSA) [4] (setting [9]), in the experiment with S. aureus 43300 (MRSA) (setting [11]) and with S. aureus USA300 (MRSA) [5] was 1 in each case.
`Brc1cccc2[nH]c3ccccc3c12` [IV-4]: the MIC is on record as 100 µM (≈ 24.6 µg/mL) in the experiment on S. aureus USA100 (MRSA) [1], 200 µM in experiment [2] and 100 µM in the experiment with S. aureus USA300 (MRSA) [3]. Moreover, the “Oxacillin MIC” value in the experiment on S. aureus USA100 (MRSA) [4] (setting [8]) was 4 µg/mL; in the experiment with S. aureus 43300 (MRSA) (setting [10]), 32 µg/mL; with S. aureus USA300 (MRSA) [5], 2 µg/mL. In addition, the “Fold Reduction” value in the experiment with S. aureus USA100 (MRSA) [4] (setting [9]) stood at 128; in the experiment on S. aureus 43300 (MRSA) (setting [11]), 1; in the experiment with S. aureus USA300 (MRSA) [5] it was 32.
`CN[C@H](CC(C)C)C(=O)N[C@H]1C(=O)N[C@@H](CC(N)=O)C(=O)N[C@H]2C(=O)N[C@H]3C(=O)N[C@H](C(=O)N[C@H](C(=O)O)c4cc(O)cc(O)c4-c4cc3ccc4O)[C@H](O)c3ccc(c(Cl)c3)Oc3cc2cc(c3O[C@@H]2O[C@H](CO)[C@@H](O)[C@H](O)[C@H]2O[C@H]2C[C@](C)(N)[C@H](O)[C@H](C)O2)Oc2ccc(cc2Cl)[C@H]1O` [Vancomycin]: the MIC of antibiotic in experiment [6] (+Loratadine 25 μM) stood at 512 µg/mL; in experiment [6] (+Loratadine 50 μM), 128 µg/mL; in experiment [6] (antibiotic alone), 1024 µg/mL; with S. aureus USA100 (MRSA) [4] (+Loratadine 25 μM, MRSA USA100) it was 2 µg/mL; with S. aureus USA100 (MRSA) [4] (+Loratadine 50 μM, MRSA USA100), 2 µg/mL; in the experiment on S. aureus USA100 (MRSA) [4] (antibiotic alone, MRSA USA100), 2 µg/mL. For the same compound, the MIC of antibiotic in the experiment with S. aureus 43300 (MRSA) (+Amoxapine (150 μM), S. aureus 43300 (MRSA)) came out at 2 µg/mL; in the experiment on S. aureus 43300 (MRSA) (+Loratadine 25 μM, MRSA 43300) it was 1 µg/mL; in the experiment on S. aureus 43300 (MRSA) (+Loratadine 50 μM, MRSA 43300), 1 µg/mL; in the experiment with S. aureus 43300 (MRSA) (antibiotic alone, no compound, S. aureus 43300 (MRSA)), 2 µg/mL; with S. aureus 43300 (MRSA) (antibiotic alone, S. aureus ATCC 43300 (MRSA)), 1 µg/mL; with S. aureus USA300 (MRSA) [5] (+Loratadine 25 μM), 1 µg/mL. The MIC of antibiotic in the experiment with S. aureus USA300 (MRSA) [5] (+Loratadine 50 μM) and in the experiment on S. aureus USA300 (MRSA) [5] (antibiotic alone) was 1 µg/mL throughout. Also, the “Fold Reduction” value stood at 2 in experiment [6] (+Loratadine 25 μM); 8 in experiment [6] (+Loratadine 50 μM); 1 in the experiment on S. aureus USA100 (MRSA) [4] (antibiotic MIC, +Loratadine 25 μM, MRSA USA100); 1 in the experiment on S. aureus USA100 (MRSA) [4] (antibiotic MIC, +Loratadine 50 μM, MRSA USA100); 1 in the experiment with S. aureus 43300 (MRSA) (antibiotic MIC, +Amoxapine (150 μM), S. aureus 43300 (MRSA)); 1 in the experiment on S. aureus 43300 (MRSA) (antibiotic MIC, +Loratadine 25 μM, MRSA 43300). Further, the “Fold Reduction” value in the experiment with S. aureus 43300 (MRSA) (antibiotic MIC, +Loratadine 50 μM, MRSA 43300) came to 1.
Turning to `Clc1cc2cccnc2c2ncccc12` [Compound V-6], the pIC50 in the experiment with MRSA 43300 biofilm was 3.73; in experiment [7], 4.24. For the same compound, in experiment [2], the MIC was determined as 125 µM. The “Oxacillin MIC” value in the experiment with S. aureus 43300 (MRSA) (+31.25 μM compound, S. aureus 43300 (MRSA)) turned out to be 4 µg/mL. Besides, in the experiment with S. aureus 43300 (MRSA) (oxacillin MIC, +31.25 μM compound, S. aureus 43300 (MRSA)), the “Fold Reduction” value turned out to be 8.
`Brc1ccc2[nH]c3ccccc3c2c1` [IV-3]: the MIC (in the experiment on S. aureus USA100 (MRSA) [1]; in [2]; with S. aureus USA300 (MRSA) [3]) was above 200 µM each time. Besides, the “Oxacillin MIC” value amounted to 512 µg/mL with S. aureus USA100 (MRSA) [4] (setting [8]), 16 µg/mL in the experiment on S. aureus 43300 (MRSA) (setting [10]) and 64 µg/mL in the experiment on S. aureus USA300 (MRSA) [5]. Moreover, the “Fold Reduction” value in the experiment with S. aureus USA100 (MRSA) [4] (setting [9]) came to 1; with S. aureus 43300 (MRSA) (setting [11]), 2; with S. aureus USA300 (MRSA) [5] it was 1.

Usually pIC50 stands for −log10 of the IC50, conventionally taken in molar units.
